Laboratory results from patent US20260200920A1, “SUBSTITUTED AMINOPYRIDINE COMPOUNDS FOR USE AS AKT1 INHIBITORS” (Atavistik Bio, Inc., priority 2023, published 2026).

Experiments:
[1] = target: T1, human recombinant kinase full-length AKT1 E17K (Homo sapiens, UniProt P31749, E17K); experiment: AKT1 E17K kinase assay (TR-FRET, Lance); type: biochemical; details: 0.6 nM AKT1 E17K, 50 nM Ulight-CREBtide, either 50 μM ATP or 2 mM ATP, 60 min at RT
T1 construct: Purified human recombinant kinase full-length AKT1 E17K was expressed in insect cells; made in house; host or cells: insect cells
T1 sequence (P31749 whole entry E17K): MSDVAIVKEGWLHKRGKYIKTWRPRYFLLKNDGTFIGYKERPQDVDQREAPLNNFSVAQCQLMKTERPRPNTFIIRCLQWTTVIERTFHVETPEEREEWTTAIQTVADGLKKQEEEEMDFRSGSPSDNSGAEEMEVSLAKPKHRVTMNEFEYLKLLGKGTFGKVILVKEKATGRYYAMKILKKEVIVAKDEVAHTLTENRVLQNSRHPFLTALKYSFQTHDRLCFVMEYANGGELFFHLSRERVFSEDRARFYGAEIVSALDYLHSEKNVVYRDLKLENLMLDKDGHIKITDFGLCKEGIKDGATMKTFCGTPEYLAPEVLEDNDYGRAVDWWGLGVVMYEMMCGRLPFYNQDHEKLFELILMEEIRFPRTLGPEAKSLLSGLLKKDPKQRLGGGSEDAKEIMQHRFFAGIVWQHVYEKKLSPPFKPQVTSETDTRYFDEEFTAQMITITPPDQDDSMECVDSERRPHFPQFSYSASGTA
Outline: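 IC50 came from a 10-point, 4-parameter fit of the 665/620 TR-FRET ratio read with Eu-anti-phospho-CREB (Ser133). Reaction at RT for 60 min after 15 min compound preincubation, using 0.6 nM PDPK1-activated full-length AKT1 E17K (insect-cell), 50 nM Ulight-CREBtide, ATP at 50 μM or 2 mM, HEPES pH 7.5, 1% DMSO.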

[2] = target: T2, human recombinant kinase full-length wildtype AKT1 (Homo sapiens, UniProt P31749); experiment: AKT1 kinase assay (wildtype, TR-FRET, Lance); type: biochemical; details: 0.6 nM wildtype AKT1, 50 nM Ulight-CREBtide, either 50 μM ATP or 2 mM ATP, 60 min at RT
T2 construct: Purified human recombinant kinase full-length wildtype AKT1 was expressed in insect cells; made in house; host or cells: insect cells
T2 sequence (P31749 whole entry): as the sequence (P31749 whole entry E17K) above, with K17E counted along it
Outline: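 TR-FRET 665/620 ratio quantified phospho-CREBtide formed by PDPK1-activated full-length human AKT1 (0.6 nM, insect-cell-derived) over 60 min at RT with 50 nM ULight-CREBtide and either 50 μM or 2 mM ATP. Compounds were preincubated 15 min with enzyme; IC50 came from 4-parameter fits of 10-point duplicates.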

Row | Structure (SMILES) | IC50 [1] [nM] | IC50 [2] [nM]
1 | Nc1ncccc1-c1nc2ccc(-c3ccccc3F)nc2n1-c1ccc(C2CN(CC34CCC(C(=O)O)(CC3)CC4)C2)cc1 [Compound I-203] | < 500 | < 20000
2 | Cc1cc(C2CN(CC3CC4(C3)CC(C(=O)O)C4)C2)ccc1-n1c(-c2cccnc2N)nc2ccc(-c3ccccc3)nc21 (stereo not shown) [Compound I-204] | < 500 | < 20000
3 | Cc1cc(C2CN(CC34CCC(C(=O)O)(CC3)CC4)C2)ccc1-n1c(-c2cccnc2N)nc2ccc(-c3ccccc3)nc21 [Compound I-206] | 500 to 2000 | < 20000
4 | Cc1cc(C2CN(CC3CC4CC(C(=O)O)CC4C3)C2)ccc1-n1c(-c2cccnc2N)nc2ccc(-c3ccccc3)nc21 (stereo not shown) [Compound I-207] | 500 to 2000 | < 20000
5 | Nc1ncccc1-c1nc2ccc(-c3ccccc3)nc2n1-c1c(F)cc(C2CN(C[C@H]3CC[C@H](C(=O)O)CC3)C2)cc1F [Compound I-208] | 500 to 2000 | < 20000
6 | Cc1nc(NC(=O)[C@H]2CC[C@H](C(=O)O)CC2)ccc1-n1c(-c2cccnc2N)nc2ccc(-c3cccc(F)c3)nc21 [Compound I-214] | < 500 | < 20000
7 | Cc1nc(NC(=O)[C@H]2CC[C@H](C(=O)O)CC2)ccc1-n1c(-c2cccnc2N)nc2ccc(-c3ccc(F)cc3)nc21 [Compound I-215] | 500 to 2000 | < 20000
8 | Cc1nc(NC(=O)[C@H]2CC[C@H](C(=O)O)CC2)ccc1-n1c(-c2cccnc2N)nc2ccc(-c3ccc(F)cc3F)nc21 [Compound I-216] | ≥ 2000 | < 20000
9 | Cc1nc(NC(=O)[C@H]2CC[C@H](C(=O)O)CC2)ccc1-n1c(-c2cccnc2N)nc2ccc(-c3c(F)cccc3F)nc21 [Compound I-217] | 500 to 2000 | < 20000
10 | Cc1nc(NC(=O)[C@H]2CC[C@H](C(=O)O)CC2)ccc1-n1c(-c2cccnc2N)nc2ccc(-c3ccccc3F)nc21 [Compound I-218] | 500 to 2000 | < 20000
11 | Cc1nc(NC(=O)[C@H]2CC[C@H](C(=O)O)CC2)ccc1-n1c(-c2cccnc2N)nc2ccc(-c3cccc(F)c3F)nc21 [Compound I-219] | 500 to 2000 | < 20000
12 | COc1ccccc1-c1ccc2nc(-c3cccnc3N)n(-c3ccc(NC(=O)[C@H]4CC[C@H](C(=O)O)CC4)nc3C)c2n1 [Compound I-220] | 500 to 2000 | < 20000
13 | Nc1ncccc1-c1nc2ccc(-c3ccccc3)cc2n1-c1ccc(C2CN(C[C@H]3CC[C@H](C(=O)O)CC3)C2)cc1 [Compound I-221, (1r,4r)-4-((3-(4-(2-(2-aminopyridin-3-yl)-6-phenyl-1H-benzo[d]imidazol-1-yl)phenyl)azetidin-1-yl)methyl)cyclohexane-1-carboxylic acid] | 500 to 2000 | < 20000
14 | Cc1cc(C2CN(C[C@H]3CC[C@@H](C(=O)O)CC3)C2)ccc1-n1c(-c2cccnc2N)nc2ccc(-c3ccccc3)cc21 [Compound I-222] | 500 to 2000 | < 20000

Now from value to compound:

Row | IC50 [1] [nM] | IC50 [2] [nM] | Structure (SMILES)
15 | 500 to 2000 | < 20000 | Cc1cc(C2CN(C[C@H]3CC[C@@H](C(=O)O)CC3)C2)ccc1-n1c(-c2cccnc2N)nc2ccc(-c3ccccc3)nc21 [Compound I-205]
16 | 500 to 2000 | < 20000 | Cc1cc(C2CN(C[C@H]3CC[C@H](C(=O)O)CC3)C2)ccc1-n1c(-c2cccnc2N)nc2ccc(-c3ccccc3F)nc21 [Compound I-209]
17 | 500 to 2000 | < 20000 | Cc1cc(C2CN(C[C@H]3CC[C@@H](C(=O)O)CC3)C2)ccc1-n1c(-c2cccnc2N)nc2ccc(-c3ccccc3F)nc21 [Compound I-210]
18 | ≥ 2000 | < 20000 | Cc1ccccc1-c1ccc2nc(-c3cccnc3N)n(-c3ccc(C4CN(C[C@H]5CC[C@H](C(=O)O)CC5)C4)cc3C)c2n1 [Compound I-211]
19 | 500 to 2000 | < 20000 | Cc1ccccc1-c1ccc2nc(-c3cccnc3N)n(-c3ccc(C4CN(C[C@H]5CC[C@H](C(=O)O)CC5)C4)cc3)c2n1 [Compound I-212]
20 | < 500 | < 20000 | Nc1ncccc1-c1nc2ccc(-c3ccccc3F)nc2n1-c1ccc(C2CN(C[C@H]3CC[C@H](C(=O)O)CC3)C2)cc1 [Compound I-213]
